Assay [1] concerns the target T1, E. coli SC (^EcSC, beta ring, DnaN) (Escherichia coli, UniProt P0A988).
T1 construct: inferred from the pET15b vector and the Ni-NTA/imidazole purification; made in house; host or cells: E. coli BL21 (DE3) pLys
As to the kind of experiment: ITC, peptide interaction with E. coli sliding clamp. Type of assay: binding.

Assay [2] relates to E. coli D22 strain. As to the kind of experiment: microbe, parasite or virus in culture. Type of assay: cell-based. The conditions noted are these: for antibacterial activity, in words: E. coli D22, microdilution broth assay.
Setting [3] is: ITC 30° C. (303.15 K), Table 2A, ^EcSC, Ni = no specific interaction.
[4] abbreviates: ITC 30° C., Table 2A, ^EcSC, Ni = no specific interaction.
Where [5] appears, read: ITC 25° C., E. coli SC (beta ring).

pKd: −log10 of the molar value. ≈ marks a conversion by molar mass, not a printed value. Square brackets hold non-standard residues; d marks the D form. Peptide text beside a SMILES is read from it. Cha = N[C@@H](CC1CCCCC1)C(=O)O Some results are limits rather than exact numbers.

T1 sequence (P0A988 whole entry): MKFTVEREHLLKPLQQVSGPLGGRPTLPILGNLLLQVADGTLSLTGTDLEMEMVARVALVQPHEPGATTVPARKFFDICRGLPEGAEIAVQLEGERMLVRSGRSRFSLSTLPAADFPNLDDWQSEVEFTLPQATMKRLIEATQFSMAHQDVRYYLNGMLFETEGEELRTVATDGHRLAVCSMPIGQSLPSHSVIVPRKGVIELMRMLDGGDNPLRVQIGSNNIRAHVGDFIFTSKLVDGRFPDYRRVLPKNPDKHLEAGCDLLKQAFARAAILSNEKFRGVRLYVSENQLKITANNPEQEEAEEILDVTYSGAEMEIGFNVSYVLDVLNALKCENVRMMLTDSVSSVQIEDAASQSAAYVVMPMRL

For the molecule `CC[C@H](C)[C@H](NC(=O)[C@@H](CCCNC(=N)N)NC(=O)[C@H](CCCNC(=N)N)NC(=O)[C@@H]1CCCN1C(=O)[C@@H]1CCCN1C(=O)[C@H](CCCNC(=N)N)NC(=O)[C@@H]1CCCN1C(=O)[C@H](CCCNC(=N)N)NC(=O)[C@@H]1CCCN1C(=O)[C@H](CC(C)C)NC(=O)[C@H](Cc1ccc(O)cc1)NC(=O)[C@@H]1CCCN1C(=O)[C@@H]1CCCN1C(=O)[C@H](CCCCN)NC(=O)[C@H](CC(=O)O)NC(=O)[C@@H](N)C(C)C)C(=O)N[C@@H](Cc1ccc(O)cc1)C(=O)N[C@@H](CC(N)=O)C(=O)N[C@H](CCCNC(=N)N)C(N)=O` [Peptide P28, reference compound] (H-VDKPPYLPRPRPPR[dR]IYN[dR]-NH2; N-terminus assumed), in assay [1] (ITC 30° C.), the “interaction with ^EcSC, in words” value was “do not interact”. Moreover, in assay [1] (setting [3]), the “ΔH (kcal/mole)” value is “Ni”. Further, in assay [1] (setting [4]), the “Kd (nM)” value is given as “Ni”, the “ΔG (kcal/mole)” value is on record as “Ni” and the “−TΔS (kcal/mole)” value is on record as “Ni”.

For `CC(=O)N[C@@H](CCC(N)=O)C(=O)N[C@@H](CC1CCCCC1)C(=O)N[C@@H](CC(=O)O)C(=O)N[C@@H](CC(C)C)C(=O)N[C@@H](Cc1ccccc1)C(=O)O` [Peptide P7, Ac-QChaDLF-OH, reference compound] (Ac-Q[Cha]DLF-OH), the “ΔG” value was -9.2 kcal/mol in assay [1] (setting [5]) and -9.00 kcal/mol in assay [1] (setting [4]). Besides, the “ΔH” value in assay [1] (setting [5]) is -15.4 kcal/mol; in assay [1] (setting [3]), -13.7 kcal/mol; in assay [1] (ITC 30° C., E.coli SC, specificity comparison with PCNA), -12.05 kcal/mol. Also, in assay [1] (setting [4]), the “−TΔS” value amounted to 4.71 kcal/mol. The pKd in assay [1] (dissociation constant (Kd) for ^EcSC, at 30° C.) is 6.40. In assay [1] (versus RQLVLGL from E. coli DNA polymerase IV), the “fold increase of affinity for ^EcSC compared to natural SC binding peptide (RQLVLGL)” value stood at 50 fold. Moreover, the “MIC (μM)” value in assay [2] (D22 strain) is above 357 µM. Further, the “MIC (μg/ml)” value in assay [2] (D22 strain) was above 256 µg/mL. In assay [2], the “antibacterial activity, in words” value is “fails to induce any detectable antibacterial activity”.

Turning to `CC[C@H](C)[C@H](NC(=O)[C@@H](CCCNC(=N)N)NC(=O)[C@H](CCCNC(=N)N)NC(=O)[C@@H]1CCCN1C(=O)[C@@H]1CCCN1C(=O)[C@H](CCCNC(=N)N)NC(=O)[C@@H]1CCCN1C(=O)[C@H](CCCNC(=N)N)NC(=O)[C@@H]1CCCN1C(=O)[C@H](CC(C)C)NC(=O)[C@H](Cc1ccc(O)cc1)NC(=O)[C@@H]1CCCN1C(=O)[C@@H]1CCCN1C(=O)[C@H](CCCCN)NC(=O)[C@H](CC(=O)O)NC(=O)[C@@H](N)C(C)C)C(=O)N[C@@H](Cc1ccc(O)cc1)C(=O)N[C@@H](CC(N)=O)C(=O)N[C@H](CCCNC(=N)N)C(=O)N[C@@H](CC(N)=O)C(=O)NCC(=O)N1CCC[C@H]1C(=O)N[C@@H](CCCNC(=N)N)C(=O)N[C@@H](CC1CCCCC1)C(=O)N[C@@H](Cc1ccccc1)C(=O)N[C@@H](CCC(N)=O)C(=O)N[C@@H](CC(C)C)C(=O)N[C@@H](CC(=O)O)C(=O)O` [Peptide P120] (H-VDKPPYLPRPRPPR[dR]IYN[dR]NGPR[Cha]FQLD-OH), the “interaction with ^EcSC, in words” value in assay [1] (ITC 30° C.) is recorded as “fail to interact”. The “ΔH (kcal/mole)” value in assay [1] (setting [3]) is “Ni”. For the same molecule, in assay [1] (setting [4]), the “Kd (nM)” value was “Ni”, the “ΔG (kcal/mole)” value is “Ni” and the “−TΔS (kcal/mole)” value is reported as “Ni”. In addition, in assay [2] (D22 strain), the “MIC (μM)” value lay in the range of 0.29 to 0.58 µM and the “MIC (μg/ml)” value was in the range of 1 to 2 µg/mL.

Turning to `CC[C@H](C)[C@H](NC(=O)[C@@H](CCCNC(=N)N)NC(=O)[C@H](CCCNC(=N)N)NC(=O)[C@@H]1CCCN1C(=O)[C@@H]1CCCN1C(=O)[C@H](CCCNC(=N)N)NC(=O)[C@@H]1CCCN1C(=O)[C@H](CCCNC(=N)N)NC(=O)[C@@H]1CCCN1C(=O)[C@H](CC(C)C)NC(=O)[C@H](Cc1ccc(O)cc1)NC(=O)[C@@H]1CCCN1C(=O)[C@@H]1CCCN1C(=O)[C@H](CCCCN)NC(=O)[C@H](CC(=O)O)NC(=O)[C@@H](N)C(C)C)C(=O)N[C@@H](Cc1ccc(O)cc1)C(=O)N[C@@H](CC(N)=O)C(=O)N[C@H](CCCNC(=N)N)C(=O)N[C@@H](CC(N)=O)C(=O)NCC(=O)N1CCC[C@H]1C(=O)N[C@@H](CCCNC(=N)N)C(=O)N[C@@H](CCC(N)=O)C(=O)N[C@@H](CC1CCCCC1)C(=O)N[C@@H](CC(=O)O)C(=O)N[C@@H](CC(C)C)C(=O)N[C@@H](Cc1ccccc1)C(=O)O` [Peptide P30] (H-VDKPPYLPRPRPPR[dR]IYN[dR]NGPRQ[Cha]DLF-OH), in assay [1] (setting [5]), the “ΔG” value was -9.2 kcal/mol and the “ΔH” value is -14.6 kcal/mol. The “interaction with ^EcSC, in words” value in assay [1] (ITC 30° C.) was “as efficiently as P7 alone”. The “ΔH” value in assay [1] (setting [3]) was -13.5 kcal/mol. In assay [1] (setting [4]), the “ΔG” value is -9.28 kcal/mol and the “−TΔS” value amounted to 4.2 kcal/mol. Further, in assay [2] (D22 strain), the “MIC (μM)” value is 0.15 to 0.29 µM and the “MIC (μg/ml)” value was 0.5 to 1 µg/mL. The “antibacterial activity, in words” value in assay [2] was “no increase in the activity”.

For the molecule `CC[C@H](C)[C@H](NC(=O)[C@@H]1CCCN1C(=O)[C@H](CCCNC(=N)N)NC(=O)[C@@H]1CCCN1C(=O)[C@@H]1CCCN1C(=O)[C@@H](NC(=O)[C@@H]1CCCN1C(=O)[C@H](CCCNC(=N)N)NC(=O)[C@@H]1CCCN1C(=O)[C@H](CC(C)C)NC(=O)[C@H](Cc1ccc(O)cc1)NC(=O)[C@H](CO)NC(=O)CNC(=O)[C@H](CCCCN)NC(=O)[C@H](CC(=O)O)NC(=O)[C@@H](NC(=O)[C@H](CCCCN)NC(=O)c1ccc2c(c1)C(=O)OC21c2ccc(O)cc2Oc2cc(O)ccc21)C(C)C)[C@@H](C)O)C(=O)N[C@@H](Cc1ccc(O)cc1)C(=O)N[C@@H](CC(N)=O)C(=O)N[C@@H](CCCNC(=N)N)C(=O)N[C@@H](CC(N)=O)C(=O)NCC(=O)N1CCC[C@H]1C(=O)N[C@@H](CCCNC(=N)N)C(=O)N[C@@H](CCC(N)=O)C(=O)N[C@@H](CC1CCCCC1)C(=O)N[C@@H](CC(=O)O)C(=O)N[C@@H](CC(C)C)C(=O)N[C@@H](Cc1ccccc1)C(=O)O` [Peptide P150], the “interaction with ^EcSC, in words” value in assay [1] (ITC 30° C.) is listed as “similarly interacts”. Besides, in assay [1] (setting [3]), the “ΔH” value is -17.2 kcal/mol. Further, in assay [1] (setting [4]), the “ΔG” value is -8.99 kcal/mol and the “−TΔS” value came to 8.21 kcal/mol. Also, in assay [2], the “factor by which MIC is lower than that of P122” value lay in the range of 4 to 16. In assay [2] (D22 strain), the “MBC” value was 128 µg/mL (≈ 33.7 µM), the “MIC (μM)” value fell in the range of 16.9 to 33.8 µM and the “MIC (μg/ml)” value is 64 to 128 µg/mL.

The values above are taken from US12098217B2, “Fusion peptides as antimicrobial agents” (CENTRE NATIONAL DE LA RECHERCHE SCIENTIFIQUE, priority 2019, dated 2024).
